From patent US10632119B2, “Fused bicyclic 2,4-diaminopyrimidine derivative as a dual ALK and FAK inhibitor” (priority 2012, dated 2020)
Converted amounts (≈) assume the structure as drawn. Where two headings read alike, the source gives them in different places.

Key:
[1] = Experimental: The following parameters and end points were evaluated in this study: clinical signs (mortality/moribundity checks, cage side observations and food consumption, and postdose observations), body weights, veterinary physical examinations, lung evaluations, ophthalmology, electrocardiography, blood pressure and heart rate measurements, clinical pathology parameters (hematology, coagulation, clinical chemistry, urinalysis, urine chemistry, and troponin I analysis), toxicokinetic parameters, gross necropsy findings, organ weights, and histopathologic examinations.
Rat bioavailability = settings: in vivo
[2] = In vitro metabolic stability, monkey; assay type: in vitro ADME; settings: monkey (Mo); read-out: In vitro metabolic stability t1/2
Adrenergic α1D (H) = Adrenergic α1D (H) (Homo sapiens, UniProt P25100); test: Receptor selectivity (Cerep); assay type: binding
[3] = remark: listed apart in the source
Experimental: Five animals/sex were assigned to each dose group and were given daily oral doses of 0 (vehicle), 20, 40 or 80 mg/kg for up to 91 days. […] Three animals/sex/group were scheduled for termination at the end of the dosing period (Day 92) and two animals/sex/group were assigned to a 6-week non-dosing recovery phase and were terminated on Day 134.
Urine samples for urinalysis only were obtained by bladder puncture during necropsy. Urine samples for urinalysis and urine chemistry analysis were also obtained by drainage from special stainless-steel cage pans in Weeks −1, 1, 4, and 13, and from the remaining animals near the end of the recovery period.
Blood samples were collected for toxicokinetic analysis at various time points on Day 1 and during Weeks 4 and 13. […] At termination, a full necropsy was conducted on all animals, and tissues were collected, preserved, processed, and examined microscopically by a Veterinary Pathologist certified by the American College of Veterinary Pathologists.

CYP 2C19 = CYP 2C19 (Homo sapiens, UniProt P33261); test: CYP inhibition; assay type: in vitro ADME
Protein binding, human = assay type: in vitro ADME; settings: human (H)
[4] = In vitro metabolic stability, rat; assay type: in vitro ADME; settings: rat (R); read-out: In vitro metabolic stability t1/2
hERG = hERG (Homo sapiens, UniProt Q12809); test: hERG patch clamp; assay type: cell-based
in vivo = test: in vivo
Experimental: One additional group of 20 animals/sex served as the control and received the vehicle, distilled water. The drug or vehicle was administered to all groups via oral gavage, once a day for 91 consecutive days, at a dose volume of 10 mL/kg/dose. Following the dosing period, five animals/sex/group were maintained for a 4-week recovery period. Additionally, one group of three animals/sex and three groups of nine animals/sex/group served as toxicokinetic (TK) animals and received the vehicle or drug in the same manner and at the same dose levels as the main study groups.
Observations for morbidity, mortality, injury, and the availability of food and water were conducted at least twice daily for all animals. Clinical observations were conducted on main study animals weekly. Body weights were measured and recorded for all animals prior to initiation of dosing (week −1) and weekly during the study. Food consumption was measured and recorded for main study animals weekly. Ophthalmoscopic examinations were conducted on main study animals pretest and prior to the terminal and recovery necropsies. Blood samples for designated clinical pathology evaluations were collected from main study animals at the end of week 4 and at the terminal and recovery necropsies. Urine samples for urinalysis evaluations were collected from main study animals prior to the terminal and recovery necropsies. Blood samples for determination of the plasma concentrations of the drug were collected from designated TK animals at designated time points on day 1, week 4, and week 13. After the final blood collection, the TK animals were euthanized and the carcasses were discarded. At the end of the terminal and recovery periods, necropsy examinations were performed, organ weights were recorded, and selected tissues were microscopically examined.

CYP3A4 = CYP3A4 induction in vitro
ALK [5] = target: T1, ALK (Homo sapiens, UniProt Q9UM73); test: ALK enzymatic assay; assay type: biochemical
CYP 2C9 = CYP 2C9 (Homo sapiens, UniProt P11712); test: CYP inhibition; assay type: in vitro ADME
FAK [6] = target: T2, FAK (Homo sapiens, UniProt Q05397); test: FAK enzymatic assay; assay type: biochemical
FAK [7] = target: T2, FAK; test: FAK cellular assay; assay type: cell-based
Caco-2 permeability = assay type: in vitro ADME; settings: human
Mouse bioavailability = assay type: in vivo; settings: CEP-37440 as amorphous HCl salt
CYP 2D6 = CYP 2D6 (Homo sapiens, UniProt P10635); test: CYP inhibition; assay type: in vitro ADME
CYP 1A2 = CYP 1A2 (Homo sapiens, UniProt P05177); test: CYP inhibition; assay type: in vitro ADME
Adrenergic α1B (R) = Adrenergic α1B (R) (Rattus norvegicus, UniProt P15823); test: Receptor selectivity (Cerep); assay type: binding
[8] = In vitro metabolic stability, mouse; assay type: in vitro ADME; settings: mouse (M); read-out: In vitro metabolic stability t1/2
Protein binding, mouse = assay type: in vitro ADME; settings: mouse (M)
ALK [9] = target: T1, ALK; test: ALK cellular assay; assay type: cell-based
Target sequence in this assay (Q9UM73 with tags, fused parts or gaps): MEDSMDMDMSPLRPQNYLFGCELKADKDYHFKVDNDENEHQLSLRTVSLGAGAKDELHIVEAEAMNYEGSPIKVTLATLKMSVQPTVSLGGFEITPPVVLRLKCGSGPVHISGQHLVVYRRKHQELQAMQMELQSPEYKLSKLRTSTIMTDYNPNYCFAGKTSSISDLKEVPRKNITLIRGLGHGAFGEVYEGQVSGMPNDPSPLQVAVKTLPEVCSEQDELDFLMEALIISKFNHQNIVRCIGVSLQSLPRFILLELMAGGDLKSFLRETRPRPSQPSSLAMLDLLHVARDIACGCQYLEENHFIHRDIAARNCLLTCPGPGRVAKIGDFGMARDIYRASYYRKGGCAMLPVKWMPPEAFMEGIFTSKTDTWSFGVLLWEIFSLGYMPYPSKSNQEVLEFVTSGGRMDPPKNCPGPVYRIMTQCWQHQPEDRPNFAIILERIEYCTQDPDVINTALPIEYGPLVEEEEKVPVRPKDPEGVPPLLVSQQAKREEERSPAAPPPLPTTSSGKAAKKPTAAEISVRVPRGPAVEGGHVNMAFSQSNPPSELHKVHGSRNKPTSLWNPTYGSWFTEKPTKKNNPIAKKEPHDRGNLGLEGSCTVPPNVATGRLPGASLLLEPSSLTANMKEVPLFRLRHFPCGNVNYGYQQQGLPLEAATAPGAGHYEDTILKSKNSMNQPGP

Monkey bioavailability = settings: in vivo, po
Protein binding, dog = assay type: in vitro ADME; settings: dog (D)
[10] = In vitro metabolic stability, human; assay type: in vitro ADME; settings: human (H); read-out: In vitro metabolic stability t1/2
IR = IR (Homo sapiens, UniProt P06213); test: biochemical
[11] = In vitro metabolic stability, dog; assay type: in vitro ADME; settings: dog (D); read-out: In vitro metabolic stability t1/2
Equilibrium solubility = assay type: physicochemical; settings: thermodynamic from solid
[12] = tested on: NCI-H2228 NSCLC tumor xenografts; test: Anti-tumor activity, EML4-ALK positive NCI-H2228 NSCLC xenograft; settings: for anti-tumor efficacy: 12 days
Text: (§1) Anti-Tumor Activity in EML4-ALK Positive (NCI-H2228 and NCI-H3122) NSCLC Tumor Xenografts in Mice with Oral Dosing
(§2) Generation of EML4-ALK-positive and EML4-ALK-negative NSCLC Subcutaneous Tumor Xenografts in Scid Mice Female Scid/Beige mice (6-8 weeks, Taconic, Hudson. N.Y.) were maintained 5/cage in microisolator units on a standard laboratory diet (Teklad Labchow, Harlan Teklad, Madison, Wis.). Animals were housed under humidity- and temperature controlled conditions and the light/dark cycle was set at 12-hour intervals. Mice were quarantined at least 1 week prior to experimental manipulation. […] The mice were monitored until the tumor xenograft volumes reached 200-500 mm3.
(§3) The length (L) and width (W) of each tumor were measured with vernier calipers and the mouse body weight was determined every two to three days. […] Percent tumor growth inhibition (% TGI) was calculated as follows: (tumor volume of the control group at end of treatment—tumor volume of the treated group at the end of treatment)/tumor volume of the control group at the end of treatment. […] Complete tumor regression (CR) was defined as the tumor volume of the treated group at the end of treatment being less than 5% of the tumor volume of the treated group as the start of treatment. Statistical analyses of tumor volumes and mouse body weights were carried out with the Mann-Whitney Rank Sum Test. Plasma and tumor samples were obtained at 2 hours post final dose at each dose level, and the compound levels in plasma and tumor lysates were measured by LC-MS/MS

[13] = tested on: NCI-H3122 NSCLC tumor xenografts; test: Anti-tumor activity, EML4-ALK positive NCI-H3122 NSCLC xenograft; settings: for anti-tumor efficacy: 12 days
Text: as §1, §2, §3

T2 sequence (Q05397 whole entry): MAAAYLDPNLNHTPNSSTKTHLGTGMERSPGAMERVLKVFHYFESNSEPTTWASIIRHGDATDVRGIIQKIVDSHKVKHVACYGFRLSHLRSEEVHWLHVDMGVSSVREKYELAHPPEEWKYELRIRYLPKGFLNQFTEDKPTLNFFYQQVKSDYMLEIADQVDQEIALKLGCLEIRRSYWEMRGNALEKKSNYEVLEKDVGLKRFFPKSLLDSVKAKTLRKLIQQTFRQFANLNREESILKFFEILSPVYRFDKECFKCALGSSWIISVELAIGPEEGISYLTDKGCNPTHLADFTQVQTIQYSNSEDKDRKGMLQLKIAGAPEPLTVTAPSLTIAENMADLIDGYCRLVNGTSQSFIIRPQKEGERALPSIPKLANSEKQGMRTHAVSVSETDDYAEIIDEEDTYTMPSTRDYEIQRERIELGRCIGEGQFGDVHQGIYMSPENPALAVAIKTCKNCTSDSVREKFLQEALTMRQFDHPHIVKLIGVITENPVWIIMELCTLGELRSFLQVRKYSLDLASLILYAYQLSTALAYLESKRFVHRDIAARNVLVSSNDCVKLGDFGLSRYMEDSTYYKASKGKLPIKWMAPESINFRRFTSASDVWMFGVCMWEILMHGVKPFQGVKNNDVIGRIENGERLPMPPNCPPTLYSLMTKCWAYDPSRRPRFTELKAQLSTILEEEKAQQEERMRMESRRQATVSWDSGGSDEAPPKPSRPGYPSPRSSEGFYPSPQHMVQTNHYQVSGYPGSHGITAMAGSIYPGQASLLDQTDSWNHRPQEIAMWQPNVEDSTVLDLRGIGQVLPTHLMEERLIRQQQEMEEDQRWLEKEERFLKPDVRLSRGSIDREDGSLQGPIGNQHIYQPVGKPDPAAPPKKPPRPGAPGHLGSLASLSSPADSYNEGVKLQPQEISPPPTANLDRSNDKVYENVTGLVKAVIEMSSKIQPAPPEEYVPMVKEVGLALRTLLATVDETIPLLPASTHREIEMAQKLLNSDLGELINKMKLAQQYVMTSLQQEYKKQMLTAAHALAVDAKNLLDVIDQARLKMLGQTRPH
Sequence of CYP 2D6 (P10635 whole entry): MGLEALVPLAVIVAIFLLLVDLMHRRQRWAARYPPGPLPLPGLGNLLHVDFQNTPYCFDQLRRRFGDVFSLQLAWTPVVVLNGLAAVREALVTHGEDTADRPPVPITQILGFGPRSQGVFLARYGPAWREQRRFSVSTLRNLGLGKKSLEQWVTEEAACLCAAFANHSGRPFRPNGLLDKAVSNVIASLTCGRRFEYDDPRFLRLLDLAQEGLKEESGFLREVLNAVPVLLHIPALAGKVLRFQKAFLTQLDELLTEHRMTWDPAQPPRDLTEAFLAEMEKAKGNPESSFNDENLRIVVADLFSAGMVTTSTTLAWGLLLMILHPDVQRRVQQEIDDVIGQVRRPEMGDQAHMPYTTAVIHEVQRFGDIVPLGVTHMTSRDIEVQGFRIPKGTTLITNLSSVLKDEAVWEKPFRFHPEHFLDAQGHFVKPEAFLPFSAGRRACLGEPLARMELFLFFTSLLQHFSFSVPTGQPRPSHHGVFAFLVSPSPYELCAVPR
Sequence of Adrenergic α1B (R) (P15823 whole entry): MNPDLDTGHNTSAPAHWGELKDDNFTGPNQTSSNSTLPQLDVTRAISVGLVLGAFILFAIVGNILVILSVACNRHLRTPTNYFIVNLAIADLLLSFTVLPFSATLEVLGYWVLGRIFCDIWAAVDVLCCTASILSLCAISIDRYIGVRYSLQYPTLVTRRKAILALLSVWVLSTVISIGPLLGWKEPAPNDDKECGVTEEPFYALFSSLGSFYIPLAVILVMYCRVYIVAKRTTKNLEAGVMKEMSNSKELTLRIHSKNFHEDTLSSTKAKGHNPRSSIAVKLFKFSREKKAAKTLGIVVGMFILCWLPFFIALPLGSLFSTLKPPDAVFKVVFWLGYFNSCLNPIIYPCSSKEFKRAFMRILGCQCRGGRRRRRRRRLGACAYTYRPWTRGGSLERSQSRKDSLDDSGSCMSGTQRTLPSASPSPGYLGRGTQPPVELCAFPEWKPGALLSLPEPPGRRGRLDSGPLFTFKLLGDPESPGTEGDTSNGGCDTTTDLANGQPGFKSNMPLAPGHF
Sequence of hERG (Q12809 whole entry): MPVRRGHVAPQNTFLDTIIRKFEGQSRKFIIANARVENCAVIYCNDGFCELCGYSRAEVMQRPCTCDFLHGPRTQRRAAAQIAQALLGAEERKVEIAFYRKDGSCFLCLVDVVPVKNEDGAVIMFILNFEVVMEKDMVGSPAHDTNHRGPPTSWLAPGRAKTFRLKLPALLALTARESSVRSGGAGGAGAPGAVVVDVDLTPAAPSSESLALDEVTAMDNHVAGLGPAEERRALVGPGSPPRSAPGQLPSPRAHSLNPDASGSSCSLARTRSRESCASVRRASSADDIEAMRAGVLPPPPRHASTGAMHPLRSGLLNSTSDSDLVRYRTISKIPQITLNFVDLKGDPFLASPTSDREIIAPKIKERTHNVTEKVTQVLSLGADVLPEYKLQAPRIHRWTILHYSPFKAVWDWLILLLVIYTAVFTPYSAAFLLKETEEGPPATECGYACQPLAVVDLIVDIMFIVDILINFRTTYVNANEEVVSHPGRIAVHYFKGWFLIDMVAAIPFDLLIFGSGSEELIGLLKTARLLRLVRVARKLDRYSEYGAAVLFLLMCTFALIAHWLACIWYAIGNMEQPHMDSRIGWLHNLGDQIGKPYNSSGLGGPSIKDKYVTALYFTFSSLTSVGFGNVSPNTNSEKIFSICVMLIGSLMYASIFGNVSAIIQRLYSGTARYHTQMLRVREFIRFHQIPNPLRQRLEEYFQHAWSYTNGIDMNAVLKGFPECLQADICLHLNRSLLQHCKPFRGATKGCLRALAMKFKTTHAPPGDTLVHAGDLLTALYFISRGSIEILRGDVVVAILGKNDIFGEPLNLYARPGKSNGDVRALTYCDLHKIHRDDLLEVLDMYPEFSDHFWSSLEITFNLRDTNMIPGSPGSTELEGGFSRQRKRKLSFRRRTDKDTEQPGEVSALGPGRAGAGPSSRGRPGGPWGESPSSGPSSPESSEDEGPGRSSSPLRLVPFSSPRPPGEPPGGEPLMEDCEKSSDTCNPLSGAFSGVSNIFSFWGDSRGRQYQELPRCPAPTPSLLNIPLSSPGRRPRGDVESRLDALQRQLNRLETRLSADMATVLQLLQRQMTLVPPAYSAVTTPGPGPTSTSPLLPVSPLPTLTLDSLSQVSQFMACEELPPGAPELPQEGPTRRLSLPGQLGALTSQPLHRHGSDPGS
Sequence of CYP 2C19 (P33261 whole entry): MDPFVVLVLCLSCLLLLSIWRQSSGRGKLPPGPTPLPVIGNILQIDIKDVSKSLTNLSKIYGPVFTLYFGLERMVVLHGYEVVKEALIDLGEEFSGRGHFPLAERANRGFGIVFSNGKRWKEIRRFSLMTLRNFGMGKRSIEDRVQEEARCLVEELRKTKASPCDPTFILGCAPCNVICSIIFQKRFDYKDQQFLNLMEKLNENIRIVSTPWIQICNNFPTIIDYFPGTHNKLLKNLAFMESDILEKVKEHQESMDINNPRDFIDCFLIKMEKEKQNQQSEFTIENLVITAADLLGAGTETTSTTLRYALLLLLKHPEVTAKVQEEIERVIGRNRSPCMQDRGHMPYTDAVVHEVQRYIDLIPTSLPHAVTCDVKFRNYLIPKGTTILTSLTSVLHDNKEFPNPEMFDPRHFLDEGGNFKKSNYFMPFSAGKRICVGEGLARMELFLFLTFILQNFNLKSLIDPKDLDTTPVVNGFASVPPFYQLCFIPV
Sequence of Adrenergic α1D (H) (P25100 whole entry): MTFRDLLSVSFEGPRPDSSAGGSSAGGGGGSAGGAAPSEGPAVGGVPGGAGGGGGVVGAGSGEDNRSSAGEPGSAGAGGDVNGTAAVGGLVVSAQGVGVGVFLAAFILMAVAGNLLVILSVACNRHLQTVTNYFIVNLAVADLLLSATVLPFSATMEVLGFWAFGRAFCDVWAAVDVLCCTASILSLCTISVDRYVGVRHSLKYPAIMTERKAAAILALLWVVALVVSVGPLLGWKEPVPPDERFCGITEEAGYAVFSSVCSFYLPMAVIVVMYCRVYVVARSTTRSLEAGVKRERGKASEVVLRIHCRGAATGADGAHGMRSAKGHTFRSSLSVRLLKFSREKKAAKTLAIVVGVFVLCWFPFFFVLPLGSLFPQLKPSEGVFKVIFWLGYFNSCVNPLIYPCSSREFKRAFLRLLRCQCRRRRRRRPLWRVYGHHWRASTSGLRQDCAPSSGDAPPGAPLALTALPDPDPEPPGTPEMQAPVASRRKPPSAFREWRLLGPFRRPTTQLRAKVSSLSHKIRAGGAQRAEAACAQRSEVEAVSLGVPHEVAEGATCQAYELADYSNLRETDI

In the case of `COc1c(Nc2ncc(Cl)c(N[C@H]3[C@@H](C(N)=O)[C@@H]4C=C[C@H]3C4)n2)ccc2c1CC[C@@H](N1CCOCC1)CC2` [CEP-28122, (1 S,2S,3R,4R)-3-[5-chloro-2-((S)-1-methoxy-7-morpholin-4-yl-6,7,8,9-tetrahydro-5H-benzocyclohepten-2-ylamino)-pyrimidin-4-ylamino]-bicyclo[2.2.1]hept-5-ene-2-carboxylic acid amide], the morbidity or mortality ([1]; 3, 10, 20, 40 mg/kg/day oral, 4 weeks) is reported as “did not result in any morbidity or mortality”, the “dose levels with vacuolated cells in the lungs still present after 4-week recovery” value ([1]; both, cynomolgus monkey, in vivo) is reported as at least 20 mg/kg/day and the “dose levels with histological effects in the lung (vacuolated cells, increased lung weight)” value ([1]; both, cynomolgus monkey, in vivo, po, 4 weeks) is reported as at least 10 mg/kg/day. The Rat bioavailability (Rat bioavailability) was 25%, the half-life [2] was under 5 min and the Ki (Adrenergic α1D (H)) was 1100 nM. For the same molecule, the animals with seizures ([3]; 80 mg/kg, Days 9 and/or 10) was 2 animals, the “lung gross and histologic findings, early death animals” value ([3]; 20, 40, 80/60 mg/kg) was “pulmonary edema was identified in all dose groups” and the morbidity and mortality ([3]; 20, 40, 80/60 mg/kg daily, 91 days) was “morbidity and mortality in two animals dosed with 80/60 mg/kg and likely two additional animals”. The hematology changes ([3]; 80/60 mg/kg, from Day 28, returned to baseline by end of recovery) was “decrease in lymphocytes”, the “liver enzymes in surviving animals” value ([3]; 80/60 mg/kg, returned to baseline by end of recovery) was “increased alanine aminotransferase (ALT) and aspartate aminotransferase (AST)” and the IC50 (CYP 2C19) was 6800 nM. The Protein binding (Protein binding, human) was 99.2 % bound, the half-life [4] was 6.7 min and the IC50 (hERG) was over 10000 nM. For the same molecule, the drug-related deaths (in vivo; 30, 75, 150 mg/kg/day oral, 91 days) was “no drug-related deaths”, the “dosages with adverse histopathological effects in the kidney persisting through 4-week recovery” value (in vivo; both, Sprague-Dawley, rat, in vivo, po, 91 days) was at least 75 mg/kg/day and the NOAEL at 91 days (in vivo; both, rat, in vivo, po) was 30 mg/kg/day. The “CYP3A4 induction in vitro” value (CYP3A4; @ 0.3 μM) was 0.95 fold, the “CYP3A4 induction in vitro” value (CYP3A4; @ 3.0 μM) was 1.3 fold and the IC50 (ALK [5]) was 3 nM. It also gave an IC50 (CYP 2C9) of 1300 nM, an IC50 (FAK [6]) of 29.5 nM and an IC50 (FAK [7]) of 944 nM. It also gave a Papp (Caco-2 permeability) of 12.6 ×10⁻⁶ cm/s, a Mouse bioavailability (Mouse bioavailability; CD-1 mouse) of 51% and a Mouse bioavailability (Mouse bioavailability; Scid mouse) of 71%. It also gave an IC50 (CYP 2D6) of 17300 nM, an IC50 (CYP 1A2) of over 30000 nM and a Ki (Adrenergic α1B (R)) of 2200 nM. For the same molecule, the half-life [8] was 13.2 min, the Protein binding (Protein binding, mouse) was 95 % bound and the IC50 (ALK [9]; 75% human plasma, read-out: ALK cellular IC50 in 75% human plasma) was 300 nM. For the same molecule, the IC50 (ALK [9]; 75% murine plasma, read-out: ALK cellular IC50 in 75% murine plasma) was 300 nM, the IC50 (ALK [9]; read-out: ALK cellular IC50) was 30 nM and the bioavailability (Monkey bioavailability; 10 mg/kg) was 16%. For the same molecule, the bioavailability (Monkey bioavailability; 30 mg/kg) was 37%, the Protein binding (Protein binding, dog) was 96 % bound and the half-life [10] was 10.3 min. The IC50 (IR) was 996 nM, the half-life [11] was 19.9 min and the solubility thermodynamic (Equilibrium solubility; pH 2, simulated gastric fluid, read-out: Equilibrium solubility at pH 2) was over 3000 µg/mL. It also gave a solubility thermodynamic (Equilibrium solubility; pH 7.4, aqueous buffer, read-out: Equilibrium solubility at pH 7.4) of 13 µg/mL (≈ 24.1 µM).
With `CNC(=O)c1ccccc1Nc1nc(Nc2ccc3c(c2OC)CCCC(N2CCN(CCO)CC2)C3)ncc1Cl.Cl` (centres unmarked) [CEP-37440 (HCl salt), 2-(5-Chloro-2-{6-[4-(2-hydroxy-ethyl)-piperazin-1-yl]-1-methoxy-6,7,8,9-tetrahydro-5H-benzocyclohepten-2-ylamino}-pyrimidin-4-ylamino)-N-methyl-benzamide hydrochloride] the anti-tumor efficacy ([12]; 30 mg/kg bid po) was “tumor regressions”, the anti-tumor efficacy ([12]; 30 mg/kg, qd, po) was “tumor regressions” and the anti-tumor efficacy ([12]; 55 mg/kg qd po) was “tumor regressions”. The “tolerability, body weight” value ([12]; 12 days treatment) was “well tolerated with no overt toxicity or compound-related weight loss”, the anti-tumor efficacy ([13]; 30 mg/kg bid po) was “tumor stasis and partial regressions” and the anti-tumor efficacy ([13]; 55 mg/kg qd po) was “tumor stasis and partial regressions”. The “tolerability, body weight” value ([13]; 12 days treatment) was “well tolerated with no overt toxicity or compound-related weight loss (FIGS. 14 and 15), except at 30 mg/kg, bid dose”.
